We go through 1 substance from patent US5951981A, “Thrombolytic agents with antithrombotic activity” (Diatide, Inc., priority 1996, dated 1999).

The subject of the assay is human platelets in platelet-rich plasma (PRP). The assay is described as follows: Platelet aggregation inhibition assay (ADP-induced, aggregometer). Format: cell-based. As to conditions: fresh human PRP, 250,000 platelets/μL; aggregation induced with 20 micromolar ADP at 37° C.; inhibitor added about 1 min before ADP; read-out: IC50 (concentration of inhibitor that reduced the extent of platelet aggregation by 50%). As for the experimental part:
Platelet aggregation studies were performed essentially as described by Zucker (1989, Methods in Enzymol. 169: 117-133). Briefly, platelet aggregation was assayed with or without putative platelet aggregation inhibitory compounds using fresh human platelet-rich plasma (PRP), comprising 250,000 platelets per microlitre. Whole human blood (36 mL) were freshly drawn from volunteers who were medication-free for at least 2 weeks prior to blood draw. Blood was drawn into 4 mL of a 0.1M sodium citrate solution and centrifuged (150 g for 20 min at 22° C.) to pellet red blood cells. The supernatant, comprising PRP, was removed and the remaining blood recentrifuged at 8000 g for 10 min to produce platelet-poor plasma (PPP; used to dilute the PRP to a final concentration of 250,000 platelets/μL). Alternatively, PPP was prepared by centrifugation of PRP for 1 min in a tabletop microcentrifuge. PPP is also used as a negative control for platelet aggregation.
Platelet aggregation was induced by the addition at 37° C. of a solution of adenosine diphosphate to a final concentration of 20 micromolar, and the extent of platelet aggregation monitored using a four channel aggregometer (Model IV Plus, Helena Laboratories, Beaumont, Tex.). […] Inhibition curves for a variety of disintegrins comprising the peptide sequence RGD was determined for each batch of platelets tested as positive controls.

Turning to “CH2 CO-YD .Amp.GDCKGCG.amide [P734 peptide]”, the IC50 turned out to be 67 nM.
